Target: T1, LKB1 (Liver kinase B1, STK11) (Homo sapiens, UniProt Q15831)
T1 construct: Recombinant Human LKB1 (CSB-EP624036HU)
T1 sequence (Q15831 1-430): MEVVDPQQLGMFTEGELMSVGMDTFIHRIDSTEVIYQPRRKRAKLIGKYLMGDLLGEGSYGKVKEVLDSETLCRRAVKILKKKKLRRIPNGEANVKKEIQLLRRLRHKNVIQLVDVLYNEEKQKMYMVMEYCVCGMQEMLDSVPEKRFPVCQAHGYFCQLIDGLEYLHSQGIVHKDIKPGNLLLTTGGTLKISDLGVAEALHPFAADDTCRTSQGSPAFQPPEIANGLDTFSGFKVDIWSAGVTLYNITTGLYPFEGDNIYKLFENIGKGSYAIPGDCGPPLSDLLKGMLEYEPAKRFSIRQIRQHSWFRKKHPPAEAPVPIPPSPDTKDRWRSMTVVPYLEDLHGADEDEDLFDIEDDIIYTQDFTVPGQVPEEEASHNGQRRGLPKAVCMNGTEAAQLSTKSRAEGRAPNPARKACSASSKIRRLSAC
Test: SPR imaging (PlexArray HT A100), LKB1 immobilized on a 3D Dextran chip, […] fit
Type: binding

## COc1nc(C/C=C(\C)C/C=C/C(C)=C/[C@@H](C)[C@@H](O[C@@H]2O[C@H](CO)[C@@H](O)[C@H](O)[C@H]2O)/C(C)=C/CO)c(C)c(O)c1OC [PA-S14, piericidin analogue S14]
  Kd: 120 nM

Reference: publication PMC9576617, “A new LKB1 activator, piericidin analogue S14, retards renal fibrosis through promoting autophagy and mitochondrial homeostasis in renal tubular epithelial cells” (Theranostics, 2022)
